Assay results reported in patent US11866518B2, “Bicyclic peptide ligands specific for TSLP” (BicycleTx Limited, priority 2020, dated 2024).
*1 amine or outer side, *2 acyl side, *3 side chain or, on linkers, in order; H or OH if unused. Where a SMILES comes first, the peptide text is derived from it. Bridges are numbered along the chain shown (N, C = ends). [ ]: non-standard residue; d: D form. TATA = O=C(CC[*:1])N1CN(C(=O)CC[*:2])CN(C(=O)CC[*:3])C1; Dap = NC[C@H](N)C(=O)O

The compounds below were run against TSLP (Homo sapiens, UniProt Q969D9) (assay: Human TSLP Surface Plasmon Resonance (SPR) binding assay). Conditions: biotinylated human TSLP immobilized on streptavidin chip; 20° C.; steady-state or kinetic 1:1 fit; read-out: hTSLP SPR Kd.
Sequence of TSLP (Q969D9 29-159): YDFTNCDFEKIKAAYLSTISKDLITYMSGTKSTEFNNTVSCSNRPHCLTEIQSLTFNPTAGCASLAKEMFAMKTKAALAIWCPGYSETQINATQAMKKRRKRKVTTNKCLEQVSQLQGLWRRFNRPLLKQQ
Design: The resulting construct spCD33-6×HN-TEV-hTSLP(29-159)-Avi; 6xHN tag with TEV site (N, cleaved yes); made in house; host or cells: Expi293F cells

Q: Which Kd does the source give for `CC(=O)N[C@H]1CSCCC(=O)N2CN3CN(C2)C(=O)CCSC[C@H](NC(=O)[C@H](CC(=O)O)NC(=O)[C@H](CCC(=O)O)NC(=O)[C@H](CC(C)C)NC(=O)[C@H](Cc2c[nH]c4ccc(F)cc24)NC(=O)[C@H](CCC(N)=O)NC1=O)C(=O)N[C@@H](Cc1c[nH]c2ccc(F)cc12)C(=O)N[C@@H](CCCNC(=N)N)C(=O)NCC(=O)N[C@@H](Cc1ccc(F)cc1)C(=O)N[C@H](C(N)=O)CSCCC3=O` [Example 21, Ac-(SEQ ID NO: 19)] here?
A: The Kd was 9.2 nM.

Q: Which Kd does the source give for `CC(=O)N[C@H]1CSCCC(=O)N2CN3CN(C2)C(=O)CCSC[C@H](NC(=O)[C@H](CC(=O)O)NC(=O)[C@H](CCC(=O)O)NC(=O)[C@H](CC(C)C)NC(=O)[C@H](Cc2c[nH]c4ccccc24)NC(=O)[C@H](CCC(N)=O)NC1=O)C(=O)N[C@@H](Cc1c[nH]c2ccccc12)C(=O)N[C@@H](CCCNC(=N)N)C(=O)NCC(=O)N[C@@H](Cc1ccc(Cl)c(F)c1)C(=O)N[C@H](C(N)=O)CSCCC3=O` [Example 41, Ac-(SEQ ID NO: 37)] here?
A: Its Kd is 24 nM.

Q: Which Kd does the source give for `CC(C)C[C@@H]1NC(=O)[C@H](Cc2c[nH]c3ccccc23)NC(=O)[C@@H]2CSCCC(=O)N3CN(CN(C3)C(=O)CCSC[C@H](NC(=O)[C@H](CCC(=O)O)NC(=O)[C@H](CO)NC(=O)[C@@H]3CCCN3C(=O)[C@H](CO)NC(=O)[C@H](CCCNC(=N)N)NC(=O)[C@@H](N)CC(N)=O)C(=O)N[C@@H](CC(=O)O)C(=O)N[C@@H](Cc3c[nH]c4ccccc34)C(=O)N[C@@H](Cc3c[nH]cn3)C(=O)N[C@@H](Cc3c[nH]c4ccccc34)C(=O)N[C@@H](CCC(=O)O)C(=O)N[C@@H](Cc3ccc(O)cc3)C(=O)N[C@@H](CC(=O)O)C(=O)N2)C(=O)CCSC[C@@H](C(N)=O)NC(=O)[C@H](CO)NC1=O` [Example 217, NRSPSE-(SEQ ID NO: 144)] here?
A: The Kd was 860 nM.

Q: How did the Kd turn out when `CC(C)C[C@@H]1NC(=O)[C@H](CO)NC(=O)[C@H](CCC(=O)O)NC(=O)[C@@H](NC(=O)[C@H](C)N)CSCCC(=O)N2CN3CN(C2)C(=O)CCSC[C@H](NC(=O)[C@H](CO)NC(=O)[C@H](Cc2c[nH]c4ccccc24)NC(=O)[C@@H]2CCCN2C(=O)[C@H](CC(=O)O)NC1=O)C(=O)N1CCC[C@H]1C(=O)N[C@@H](C(C)C)C(=O)N[C@@H](Cc1c[nH]c2ccccc12)C(=O)N[C@@H](Cc1c[nH]c2ccccc12)C(=O)N[C@@H](CCCNC(=N)N)C(=O)N[C@H](C(=O)N[C@@H](C)C(N)=O)CSCCC3=O` [Example 161, A-(SEQ ID NO: 119)-A] (H-ACESLDPWSCPVWWRCA-NH2; linker 2-10-16 via TATA; N-terminus and C-terminus assumed) was run?
A: The Kd was 890 nM.

Q: Which Kd does the source give for `CC(=O)N[C@H]1CSCCC(=O)N2CN3CN(C2)C(=O)CCSC[C@H](NC(=O)[C@H](CC(=O)O)NC(=O)[C@H](CCC(=O)O)NC(=O)[C@H](CC(C)C)NC(=O)[C@H](Cc2cccc4ccccc24)NC(=O)[C@H](CCC(N)=O)NC1=O)C(=O)N[C@@H](Cc1c[nH]c2ccccc12)C(=O)N[C@@H](CCCNC(=N)N(C)C)C(=O)NCC(=O)N[C@@H](Cc1ccc(F)cc1)C(=O)N[C@H](C(=O)O)CSCCC3=O` [Example 69, Ac-(SEQ ID NO: 34)-COOH] here?
A: Its Kd is 77 nM.

Q: For `CC(C)C[C@@H]1NC(=O)[C@H](CO)NC(=O)[C@@H]2CCCN2C(=O)[C@@H](NC(=O)[C@H](C)N)CSCCC(=O)N2CN3CN(C2)C(=O)CCSC[C@H](NC(=O)[C@H]([C@@H](C)O)NC(=O)[C@H](Cc2c[nH]c4ccccc24)NC(=O)[C@@H]2CCCN2C(=O)[C@H](CC(=O)O)NC1=O)C(=O)N[C@@H](CCC(N)=O)C(=O)N[C@@H](CO)C(=O)N[C@@H](Cc1c[nH]c2ccccc12)C(=O)N[C@@H](Cc1ccc(O)cc1)C(=O)N[C@@H](CCC(=O)O)C(=O)N[C@H](C(=O)N[C@@H](C)C(N)=O)CSCCC3=O` [Example 162, A-(SEQ ID NO: 120)-A], which Kd is on record?
A: Its Kd is 1500 nM.

Q: How did the Kd turn out when `CC(C)C[C@@H]1NC(=O)[C@H](Cc2c[nH]c3ccccc23)NC(=O)[C@@H]2CSCCC(=O)N3CN(CN(C3)C(=O)CCSC[C@@H](C(=O)N[C@@H](C)C(N)=O)NC(=O)[C@@H]3CCCN3C1=O)C(=O)CCSC[C@H](NC(=O)[C@H](C)N)C(=O)N[C@@H](CC(=O)O)C(=O)N[C@@H](Cc1c[nH]c3ccccc13)C(=O)N[C@@H](CCC(N)=O)C(=O)N[C@@H](Cc1c[nH]c3ccccc13)C(=O)N[C@@H](CO)C(=O)N[C@@H](Cc1ccc(O)cc1)C(=O)N[C@@H](CC(=O)O)C(=O)N2` [Example 196, A-(SEQ ID NO: 141)-A] (H-ACDWQWSYDCWLPCA-NH2; linker 2-10-14 via TATA; N-terminus assumed) was run?
A: The Kd was 6100 nM.

Q: With `CC(=O)N[C@H]1CSCCC(=O)N2CN3CN(C2)C(=O)CCSC[C@H](NC(=O)[C@H](CC(=O)O)NC(=O)[C@H](CCC(=O)O)NC(=O)[C@H](CC(C)C)NC(=O)[C@H](Cc2c[nH]c4ccccc24)NC(=O)[C@H](CCC(N)=O)NC1=O)C(=O)N[C@@H](Cc1c[nH]c2ccccc12)C(=O)N[C@@H](C)C(=O)NCC(=O)N[C@@H](Cc1ccccc1)C(=O)N[C@H](C(N)=O)CSCCC3=O` [Example 149, Ac-(SEQ ID NO: 108)] as the compound, how does the Kd read?
A: The Kd was 1100 nM.

Q: For `CC[C@H](C)[C@@H]1NC(=O)[C@H]([C@@H](C)O)NC(=O)[C@@H](NC(=O)[C@H](C)N)CSCCC(=O)N2CN3CN(C2)C(=O)CCSC[C@H](NC(=O)[C@H](CC(=O)O)NC(=O)[C@H](CCC(=O)O)NC(=O)[C@H](CC(C)C)NC1=O)C(=O)N[C@@H](Cc1c[nH]c2ccccc12)C(=O)N[C@@H](CCSC)C(=O)NCC(=O)N[C@@H](Cc1ccccc1)C(=O)N[C@H](C(=O)N[C@@H](C)C(N)=O)CSCCC3=O` [Example 150, A-(SEQ ID NO: 109)-A], which Kd is on record?
A: Its Kd is 1500 nM.

Q: For `CC(C)C[C@@H]1NC(=O)[C@H](Cc2c[nH]c3ccccc23)NC(=O)[C@H](CCC(N)=O)NC(=O)[C@@H](N)CSCCC(=O)N2CN3CN(C2)C(=O)CCSC[C@H](NC(=O)[C@H](CC(=O)O)NC(=O)[C@H](CCC(=O)O)NC1=O)C(=O)N[C@@H](Cc1c[nH]c2ccccc12)C(=O)N[C@@H](CN)C(=O)NCC(=O)N[C@@H](Cc1ccccc1)C(=O)N[C@H](C(N)=O)CSCCC3=O` [Example 156, (SEQ ID NO: 114)], which Kd is on record?
A: The Kd was 3300 nM.

Q: Which Kd does the source give for `CC(C)C[C@@H]1NC(=O)[C@H](C)NC(=O)[C@@H](NC(=O)[C@H](C)N)CSCCC(=O)N2CN3CN(C2)C(=O)CCSC[C@H](NC(=O)[C@H](C(C)C)NC(=O)[C@H](Cc2c[nH]c4ccccc24)NC(=O)[C@@H]2CCCN2C(=O)[C@H](CC(=O)O)NC1=O)C(=O)N1CCC[C@H]1C(=O)N[C@@H](CCC(N)=O)C(=O)N[C@@H](Cc1c[nH]c2ccccc12)C(=O)N[C@@H](Cc1c[nH]c2ccccc12)C(=O)N[C@@H](CC(=O)O)C(=O)N[C@H](C(=O)N[C@@H](C)C(N)=O)CSCCC3=O` [Example 230, A-(SEQ ID NO: 157)-A] (H-ACALDPWVCPQWWDCA-NH2; linker 2-9-15 via TATA; N-terminus and C-terminus assumed) here?
A: Its Kd is 960 nM.

Q: For `CC(C)C[C@@H]1NC(=O)[C@H](Cc2c[nH]c3ccccc23)NC(=O)[C@@H]2CSCCC(=O)N3CN(CN(C3)C(=O)CCSC[C@@H](C(=O)N[C@@H](Cc3ccccc3)C(=O)N[C@@H](C)C(=O)N[C@@H](CCC(=O)O)C(N)=O)NC(=O)[C@@H]3CCCN3C1=O)C(=O)CCSC[C@H](NC(=O)[C@H](C)N)C(=O)N[C@@H](CC(=O)O)C(=O)N[C@@H](Cc1c[nH]c3ccccc13)C(=O)N[C@@H](CC(=O)O)C(=O)N[C@@H](Cc1c[nH]c3ccccc13)C(=O)N[C@@H](CC(=O)O)C(=O)N[C@@H](Cc1ccc(O)cc1)C(=O)N[C@@H](CC(=O)O)C(=O)N2` [Example 208, A-(SEQ ID NO: 153)-FAE] (H-ACDWDWDYDCWLPCFAE-NH2; linker 2-10-14 via TATA; N-terminus assumed), which Kd is on record?
A: The Kd was 340 nM.

Q: With `CC(=O)N[C@H]1CSCCC(=O)N2CN3CN(C2)C(=O)CCSC[C@H](NC(=O)[C@H](CC(=O)O)NC(=O)[C@H](CCC(=O)O)NC(=O)[C@H](CC(C)C)NC(=O)[C@H](Cc2c[nH]c4ccccc24)NC(=O)[C@H](CCC(N)=O)NC1=O)C(=O)N[C@@H](Cc1c[nH]c2ccccc12)C(=O)N[C@@H](CCONC(=N)N)C(=O)NCC(=O)N[C@@H](Cc1ccccc1)C(=O)N[C@H](C(N)=O)CSCCC3=O` [Example 131, Ac-(SEQ ID NO: 92)] as the compound, how does the Kd read?
A: Its Kd is 400 nM.

Q: Which Kd does the source give for `CC(C)C[C@@H]1NC(=O)[C@H](Cc2c[nH]c3ccccc23)NC(=O)[C@H](CCC(N)=O)NC(=O)[C@@H](N)CSCCC(=O)N2CN3CN(C2)C(=O)CCSC[C@H](NC(=O)[C@H](CC(=O)O)NC(=O)[C@H](CCC(=O)O)NC1=O)C(=O)N[C@@H](Cc1c[nH]c2ccccc12)C(=O)N[C@@H](CCCNC(=N)N)C(=O)NCC(=O)N[C@@H](Cc1ccccc1)C(=O)N[C@H](C(=O)N[C@@H](CC(=O)O)C(=O)N[C@H](C(=O)N[C@@H](CO)C(=O)N[C@H](C(=O)N[C@@H](Cc1c[nH]cn1)C(=O)N[C@@H](CO)C(N)=O)[C@@H](C)O)[C@@H](C)O)CSCCC3=O` [Example 128, (SEQ ID NO: 38)-DTSTHS] (H-CQWLEDCWRGFCDTSTHS-NH2; linker 1-7-12 via TATA) here?
A: The Kd was 380 nM.

Q: How did the Kd turn out when `CC(=O)N[C@H]1CSCCC(=O)N2CN3CN(C2)C(=O)CCSC[C@H](NC(=O)[C@H](CC(N)=O)NC(=O)[C@H](CCC(=O)O)NC(=O)[C@H](CC(C)C)NC(=O)[C@H](Cc2c[nH]c4ccccc24)NC(=O)[C@H](Cc2c[nH]cn2)NC1=O)C(=O)N[C@@H](Cc1c[nH]c2ccccc12)C(=O)N[C@@H](CN)C(=O)NCC(=O)N[C@@H](Cc1ccccc1)C(=O)N[C@H](C(N)=O)CSCCC3=O` [Example 159, Ac-(SEQ ID NO: 117)] (Ac-CHWLENCW[Dap]GFC-NH2; linker 1-7-12 via TATA; C-terminus assumed) was run?
A: Its Kd is 5600 nM.

Q: With `CC(C)C[C@@H]1NC(=O)[C@H](Cc2c[nH]c3ccccc23)NC(=O)[C@H](CCC(N)=O)NC(=O)[C@@H](NC(=O)[C@@H](NC(=O)[C@H](CCCNC(=N)N)NC(=O)[C@H](CCC(N)=O)NC(=O)[C@H](CCC(=O)O)NC(=O)[C@H](CC(=O)O)NC(=O)[C@@H](N)CO)[C@@H](C)O)CSCCC(=O)N2CN3CN(C2)C(=O)CCSC[C@H](NC(=O)[C@H](CC(=O)O)NC(=O)[C@H](CCC(=O)O)NC1=O)C(=O)N[C@@H](Cc1c[nH]c2ccccc12)C(=O)N[C@@H](CCCNC(=N)N)C(=O)NCC(=O)N[C@@H](Cc1ccccc1)C(=O)N[C@H](C(=O)N[C@@H](C)C(N)=O)CSCCC3=O` [Example 61, SDEQRT-(SEQ ID NO: 38)-A] as the compound, how does the Kd read?
A: Its Kd is 62 nM.
